≈ marks a conversion by molar mass, not a printed value.
Columns and labels:
Experiment in all cases: in vitro antibacterial evaluation, MIC by broth dilution
Type in all cases: cell-based
Enterococcus sp. = details: broth dilution, 18 hours at 35° C.
Procedure, shortened: (§1)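 MIC, the lowest antibiotic concentration preventing growth, was read across 64-0.06 μg/mL with 5×10^5 CFU/mL inoculum. Method followed NCCLS M7-A2 broth dilution using Mueller-Hinton II; Gram-positive strains covered recent methicillin-, penicillin- and/or vancomycin-resistant clinical isolates.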

Escherichia coli = details: 18 hours at 35° C., strain ATCC 25922
Procedure, shortened: as §1

Staphylococcus sp. = details: broth dilution, 18 hours at 35° C.
Procedure, shortened: as §1

Streptococcus sp. = details: broth dilution, 18 hours at 35° C.
Procedure, shortened: as §1

MIC Enterococcus avium (GC 4558) (Enterococcus sp.; Enterococcus avium (GC 4558)): 2 µg/mL (≈ 1.45 µM) | MIC Enterococcus faecalis (ATCC 29212) (Enterococcus sp.; Enterococcus faecalis (ATCC 29212)): 2 µg/mL (≈ 1.45 µM) | MIC Enterococcus faecalis (GC 2242) (Enterococcus sp.; Enterococcus faecalis (GC 2242)): 2 µg/mL (≈ 1.45 µM) | MIC Enterococcus faecalis (GC 4552) (Enterococcus sp.; Enterococcus faecalis (GC 4552)): 2 µg/mL (≈ 1.45 µM) | MIC Enterococcus faecalis (GC 4553) (Enterococcus sp.; Enterococcus faecalis (GC 4553)): 2 µg/mL (≈ 1.45 µM) | MIC Enterococcus faecalis (GC 4554) (Enterococcus sp.; Enterococcus faecalis (GC 4554)): 2 µg/mL (≈ 1.45 µM) | MIC Enterococcus faecium (GC 2243) (Enterococcus sp.; Enterococcus faecium (GC 2243)): 2 µg/mL (≈ 1.45 µM) | MIC Enterococcus faecium (GC 4556) (Enterococcus sp.; Enterococcus faecium (GC 4556)): 2 µg/mL (≈ 1.45 µM) | MIC Enterococcus faecium (GC 4557) (Enterococcus sp.; Enterococcus faecium (GC 4557)): 1 µg/mL (≈ 0.726 µM) | MIC Enterococcus faecalis (ATCC 29212) (Enterococcus sp.; strain ATCC 29212): 2 µg/mL (≈ 1.45 µM) | MIC Enterococcus faecalis (GC 2242) (Enterococcus sp.; strain GC 2242): 2 µg/mL (≈ 1.45 µM) | MIC Enterococcus faecium (GC 2243) (Enterococcus sp.; strain GC 2243): 2 µg/mL (≈ 1.45 µM) | MIC Enterococcus faecalis (GC 4552) (Enterococcus sp.; strain GC 4552): 2 µg/mL (≈ 1.45 µM) | MIC Enterococcus faecalis (GC 4553) (Enterococcus sp.; strain GC 4553): 2 µg/mL (≈ 1.45 µM) | MIC Enterococcus faecalis (GC 4554) (Enterococcus sp.; strain GC 4554): 2 µg/mL (≈ 1.45 µM) | MIC Enterococcus faecium (GC 4556) (Enterococcus sp.; strain GC 4556): 2 µg/mL (≈ 1.45 µM) | MIC Enterococcus faecium (GC 4557) (Enterococcus sp.; strain GC 4557): 1 µg/mL (≈ 0.726 µM) | MIC Enterococcus avium (GC 4558) (Enterococcus sp.; strain GC 4558): 2 µg/mL (≈ 1.45 µM) | MIC Escherichia coli (ATCC 25922) (Escherichia coli): 32 µg/mL (≈ 23.2 µM) | MIC Coagulase Negative Staphylococcus (GC 4547) (Staphylococcus sp.): 1 µg/mL (≈ 0.726 µM) | MIC Coagulase Negative Staphylococcus (GC 4548) (Staphylococcus sp.): <0.5 µg/mL | MIC Coagulase Negative Staphylococcus (GC 4549) (Staphylococcus sp.): 1 µg/mL (≈ 0.726 µM) | MIC Coagulase Negative Staphylococcus (GC 4551) (Staphylococcus sp.): 1 µg/mL (≈ 0.726 µM) | MIC Coagulase Negative Staphylococcus (ID-3941) (Staphylococcus sp.): 1 µg/mL (≈ 0.726 µM) | MIC Staphylococcus aureus (ATCC 29213) (Staphylococcus sp.): 1 µg/mL (≈ 0.726 µM) | MIC Staphylococcus aureus (GC 1131) (Staphylococcus sp.): 1 µg/mL (≈ 0.726 µM) | MIC Staphylococcus aureus (GC 4541) (Staphylococcus sp.): 1 µg/mL (≈ 0.726 µM) | MIC Staphylococcus aureus (GC 4542) (Staphylococcus sp.): 1 µg/mL (≈ 0.726 µM) | MIC Staphylococcus aureus (GC 4544) (Staphylococcus sp.): 1 µg/mL (≈ 0.726 µM) | MIC Staphylococcus aureus (GC 4545) (Staphylococcus sp.): 1 µg/mL (≈ 0.726 µM) | MIC Staphylococcus aureus-SMITH (GC 4543) (Staphylococcus sp.): 1 µg/mL (≈ 0.726 µM) | MIC Staphylococcus aureus (GC 1131) (Staphylococcus sp.; inoculum 5×10^5 CFU/mL, strain GC 1131): 1 µg/mL (≈ 0.726 µM) | MIC Staphylococcus aureus (ATCC 29213) (Staphylococcus sp.; strain ATCC 29213): 1 µg/mL (≈ 0.726 µM) | MIC Staphylococcus aureus (GC 4541) (Staphylococcus sp.; strain GC 4541): 1 µg/mL (≈ 0.726 µM) | MIC Staphylococcus aureus (GC 4542) (Staphylococcus sp.; strain GC 4542): 1 µg/mL (≈ 0.726 µM) | MIC Staphylococcus aureus (GC 4544) (Staphylococcus sp.; strain GC 4544): 1 µg/mL (≈ 0.726 µM) | MIC Staphylococcus aureus (GC 4545) (Staphylococcus sp.; strain GC 4545): 1 µg/mL (≈ 0.726 µM) | MIC Coagulase Negative Staphylococcus (GC 4547) (Staphylococcus sp.; strain GC 4547): 1 µg/mL (≈ 0.726 µM) | MIC Coagulase Negative Staphylococcus (GC 4548) (Staphylococcus sp.; strain GC 4548): <0.5 µg/mL | MIC Coagulase Negative Staphylococcus (GC 4549) (Staphylococcus sp.; strain GC 4549): 1 µg/mL (≈ 0.726 µM) | MIC Coagulase Negative Staphylococcus (GC 4551) (Staphylococcus sp.; strain GC 4551): 1 µg/mL (≈ 0.726 µM) | MIC Coagulase Negative Staphylococcus (ID-3941) (Staphylococcus sp.; strain ID-3941): 1 µg/mL (≈ 0.726 µM) | MIC Staphylococcus aureus-SMITH (GC 4543) (Staphylococcus sp.; strain SMITH GC 4543): 1 µg/mL (≈ 0.726 µM) | MIC Streptococcus agalactiae (GC 4564) (Streptococcus sp.; Streptococcus agalactiae (GC 4564)): <0.5 µg/mL | MIC Streptococcus pneumoniae (GC 4565) (Streptococcus sp.; Streptococcus pneumoniae (GC 4565)): <0.5 µg/mL | MIC Streptococcus pyogenes (ID-3187) (Streptococcus sp.; Streptococcus pyogenes (ID-3187)): <0.5 µg/mL | MIC Streptococcus agalactiae (GC 4564) (Streptococcus sp.; strain GC 4564): <0.5 µg/mL | MIC Streptococcus pneumoniae (GC 4565) (Streptococcus sp.; strain GC 4565): <0.5 µg/mL | MIC Streptococcus pyogenes (ID-3187) (Streptococcus sp.; strain ID-3187): <0.5 µg/mL
SMILES: CCCCCC1OCC2OC(OC3C(CO)OC(Oc4ccc(CC5NC(=O)C(C(C)c6ccccc6)NC(=O)CNC(=O)C(CO)NC(=O)C(C(O)C6CNC(=N)N6C6OC(CO)C(O)C(O)C6O)NC(=O)C(C(O)C6CNC(=N)N6)NC5=O)cc4)C(O)C3O)C(O)C(O)C2O1 (stereo not drawn) [Example 108, Cyclo[glycyl-β-methylphenylalanyl-O-[4-O-(4,6-O-hexylidenehexopyranosyl)hexopyranosyl]-tyrosyl-3-(2-iminoimidazolidin-4-yl)seryl-3-(3-hexopyranosyl-2-iminoimidazolidin-4-yl)-serylseryl]]
MIC Staphylococcus haemolyticus (GC 4546) (Staphylococcus sp.): 1 µg/mL (≈ 0.726 µM) | MIC Staphylococcus haemolyticus (GC 4546) (Staphylococcus sp.; strain GC 4546): 1 µg/mL (≈ 0.726 µM)

From patent US6914045B2, “Glycopeptide antibiotics” (Wyeth Holdings Corporation, priority 2001, dated 2005)
